Where “and” joins values, the source holds several entries; their conditions need not be identical. Equal entries are not always repeated. Entries after “also recorded” stand apart in the source; their conditions may differ.
Tests used:
human spermatozoa [1] = test: Sperm motility by counting; format: cell-based; conditions: for effect on sperm motility at the antiviral EC100 concentrations: 0.01 to 0.1 μg/ml; for spermicidal activity / motility inhibition over the entire concentration ranges tested: 0.1 to 100 μg/ml
Experimental: Ten semen samples were randomly obtained form ten donors at the Andrology laboratory of the Department of Obstetrics and Gynecology at NYU Medical Center. All specimens were normal semen samples according to WHO guidelines. Each sample consisted of greater than or equal to 20 million motile sperm per milliliter. Sperm count and motility were determined by placing the sperm on a hackler chamber and assessing the samples under a 40× power microscopic field.
Each semen sample was washed two consecutive times in Ham's F-10 media. The washed sperm was spun to a pellet and then re-suspended in media to a concentration of 40 million spermatocytes per milliliter with at least 50% motility. Five microliters of sperm were then suspended in 100 microliters each of PBS, serial 10-fold dilutions of MAP30, or GAP31 or N-9 from 100 to 0.1 microg/ml. N-9 was used as a positive control. Motility and forward progression were assessed at each log concentration of the three compounds. The exposure time ranged form five minute to two hours.

HIV-1(IIIB) = test: Anti-HIV assay: p24 expression in HIV-infected MT-4 T lymphocytes; format: cell-based; conditions: for EC50 / EC50 anti-HIV, p24 / EC100 anti-HIV, p24 (complete inhibition of HIV-1) / EC100 anti-HIV, p24 (molar): HIV-1 infected MT4 lymphocytes; for fold more potent than N-9 in terms of molar concentration at EC50 / fold more potent than N-9 in terms of weight per volume: anti-HIV p24, MT4; for concentration of complete inhibition of p24 expression (FIG. 9): p24 ELISA of HIV-infected MT4 culture supernatant
Experimental: Anti-HIV activity was assayed by inhibition on viral core protein, p24 expression in HIV-infected MT-4 T lymphocytes by RIA as described previously (World Health Organization (1992); Bourinbaiar et al (1995)). Briefly, the cells were plated in duplicated in 96-well microtiter plates at 1×10^5 cells/ml in the presence of serial 10-fold dilution of MAP30, or GAP31 or NP-9 at concentrations from […]. The cells were then infected with HIV-1(IIIB) at 100 infectious units per cell. The culture supernatants were collected on day 3 and were used for p24 assay using ELISA kit from Coulter (Hialeah, Fla.). Duplicates of original viral inoculum in the same volume of the medium without the target cells and incubated for 3 days were used as blanks. The blank values were subtracted from wells in which virus was propagated in host MT4 cells with or without drugs.

[2] = test system: endoproteinase Lys-C and Glu-C (V8); test: Resistance to limited proteolysis with Lys-C and V8 (SDS-PAGE); conditions: Lys-C or V8, up to 24 hr
Experimental: MAP30 and GAP31 were subjected to proteolysis with sequencing grade endoproteinase Lys-C and Glu-C (Promega, Madison, Wis.). Lys-C cleaves at the carboxylic side of lysine (Elliott et al., 1986). Glu-C, also known as V8 protease, cleaves specifically at the carboxylic side of glutamic acid in the presence of ammonium ion (Drapeau et al., 1972). In the absence of ammonium ion, Glu-C acts at both aspartic and glutamic acids. The reaction buffers for Lys-C and V8 were 25 mM Tris-HCl, pH 7.8, 1 mM EDTA and 50 mM ammonium bicarbonate, pH 7.8 respectively.
FIGS. 1A-1D show time course SDS-PAGE patterns of Lys-C and V8 digestions of MAP30 and GAP31. Three major fragments were produced in each case. These fragments are designated MLF25, MLF21, MLF0.8 (MAP30 Lys-C Fragments of 25, 21, and 0.8 kDa, FIG. 1A), MVF25, MVF21, MVF0.8 (MAP30 V8 Fragments of 25, 21, and 0.8 kDa, FIG. 1B), GLF26, GLF22, GLF0.6 (GAP31 Lys-C Fragments of 26, 22 and 0.6 kDa, FIG. 1C), and GVF26, GVF22, GVF0.6 (GAP31 V8 Fragments of 26, 22 and 0.6 kDa, FIG. 1D). The smaller peptides are C-terminal fragments produced during proteolysis and they are sensitive to further digestion to short peptides.

human spermatozoa [3] = test: Sperm vitality by eosin Y/nigrosine staining; format: cell-based; conditions: vital stain
Experimental: The vitality staining was carried out by adding two drops of eosin Y to one drop of sperm sample and mixing for ten seconds. Two drops of nigrosine were then added to this mixture, and the solutions as mixed for 30 seconds. Slides were made from one drop of each solution mixed with MAP30, or GAP31, or N-9.

HSV-2 = test: Anti-HSV assay by ELISA in WI-38 cells; format: cell-based
Experimental: Anti-HSV activity was assayed with HSV-2 by ELISA (Meridian Diagnostics, Inc., Cincinnati, Ohio) as reported previously (Bourinbaiar et al (1996)). Human embryonic lung fibroblast cell line WI-38, (CCL-75, from ATCC, Rockville, Md.) was used as target cells. HSV-2 (VR-734, strain G) derived from a human with the genital infection was obtained from ATCC, Rockville, Md.

GAP31: Gelonium Anti-HIV Protein 31 kDa, native full-length, SEQ ID NO:2, from Gelonium multiflorum
inhibition of sperm motility at 100 μg/ml (human spermatozoa [1]): only marginal effect | effect on sperm motility at the antiviral EC100 concentrations (human spermatozoa [1]): no significant effect on sperm motility | spermicidal activity / motility inhibition over the entire concentration ranges tested (human spermatozoa [1]): little spermicidal activity; also recorded: little inhibition | EC50 (HIV-1(IIIB)): 0.3 nM | EC50 anti-HIV, p24 (HIV-1(IIIB)): 0.001 µg/mL | EC100 anti-HIV, p24 (complete inhibition of HIV-1) (HIV-1(IIIB)): 0.1 µg/mL | EC100 anti-HIV, p24 (molar) (HIV-1(IIIB)): 3.3 nM | fold more potent than N-9 in terms of molar concentration at EC50 (HIV-1(IIIB)): about 540 fold | fold more potent than N-9 in terms of weight per volume (HIV-1(IIIB)): about 100 fold | concentration of complete inhibition of p24 expression (FIG. 9) (HIV-1(IIIB)): 0.1 microgram/ml | resistance to proteolysis [2]: no proteolysis was detected up to 24 hr of treatment even at as much as 5% (W/W) of enzyme | sperm vitality after treatment (human spermatozoa [3]): remained vital and impermeable to the pink dye; also recorded: not toxic to the spermatozoa | EC100 for HSV-2 (complete inhibition) (HSV-2): 0.1 µg/mL

Nonoxynol-9 [Fragment N-9, reference compound]
concentration of complete inhibition of sperm motility (FIG. 7) (human spermatozoa [1]): 100 micrograms/ml | inhibition in motility at 10 μg/ml (human spermatozoa [1]; 10 μg/ml, relative to PBS as 100% motility, mean ± SEM): 43±5% | inhibition of sperm motility at 100 μg/ml (human spermatozoa [1]): totally inhibited | EC50 spermicidal activity (human spermatozoa [1]; 50% inhibition of sperm motility): 20 µg/mL | EC100 spermicidal activity (human spermatozoa [1]; 100% inhibition of sperm motility): 100 µg/mL | inhibition on sperm motility at the antiviral EC100 concentrations (human spermatozoa [1]; N-9 at 10 μg/ml and 50 μg/ml): 50 to 80% | EC50 (HIV-1(IIIB)): 162 nM | EC50 anti-HIV, p24 (HIV-1(IIIB)): 0.1 µg/mL | EC100 anti-HIV, p24 (complete inhibition of HIV-1) (HIV-1(IIIB)): 10 µg/mL | EC100 anti-HIV, p24 (molar) (HIV-1(IIIB)): 16200 nM | concentration of complete inhibition of p24 expression (FIG. 9) (HIV-1(IIIB)): 10 microgram/ml | sperm vitality after treatment (human spermatozoa [3]): potent spermicidal effect; also recorded: all sperm wimples were dead | EC100 for HSV-2 (complete inhibition) (HSV-2): 50 µg/mL

B1: MAP30: Momordica Anti-HIV Protein 30 kDa, native full-length, SEQ ID NO:1, from bitter melon (protein, listed as Momordica charantia)
chain: DVNFDLSTATAKTYTKFIEDFRATLPFSHKVYDIPLLYSTISDSRRFILLDLTSYAYETISVAIDVTNVYVVAYRTRDVSYFFKESPPEAYNILFKGTRKITLPYTGNYENLQTAAHKIRENIDLGLPALSSAITTLFYYNAQSAPSALLVLIQTTAEAARFKYIERHVAKYVATNFKPNLAIISLENQWSALSKQIFLAQNQGGKFRNPVDLIKPTGERFQVTNVDSDVVKGNIKLLLNSRASTADENFITTMTLLGESVVN
inhibition of sperm motility at 100 μg/ml (human spermatozoa [1]): only marginal effect | effect on sperm motility at the antiviral EC100 concentrations (human spermatozoa [1]): no significant effect on sperm motility | spermicidal activity / motility inhibition over the entire concentration ranges tested (human spermatozoa [1]): little spermicidal activity; also recorded: little inhibition | EC50 (HIV-1(IIIB)): 0.3 nM | EC50 anti-HIV, p24 (HIV-1(IIIB)): 0.001 µg/mL | EC100 anti-HIV, p24 (complete inhibition of HIV-1) (HIV-1(IIIB)): 0.1 µg/mL and 0.08 µg/mL | EC100 anti-HIV, p24 (molar) (HIV-1(IIIB)): 3.3 nM | fold more potent than N-9 in terms of molar concentration at EC50 (HIV-1(IIIB)): about 540 fold | fold more potent than N-9 in terms of weight per volume (HIV-1(IIIB)): about 100 fold | concentration of complete inhibition of p24 expression (FIG. 9) (HIV-1(IIIB)): 0.1 microgram/ml | resistance to proteolysis [2]: no proteolysis was detected up to 24 hr of treatment even at as much as 5% (W/W) of enzyme | sperm vitality after treatment (human spermatozoa [3]): remained vital and impermeable to the pink dye; also recorded: Identical results | EC100 for HSV-2 (complete inhibition) (HSV-2): 0.01 µg/mL

— patent US6652861B1, “Anti-HIV and anti-tumor peptides and truncated polypeptides of MAP30” (priority 1999, dated 2003)
